Marks after values point to notes of the source that are not given here.
Legend:
[1] = system: antibody responses to chicken egg ovalbumin (OVA); experiment: Serum IgG, IgG1 and IgG2a anti-OVA response (ELISA) in mice immunized s.c. with OVA plus adjuvant; assay type: in vivo, BALB/c mice; design: IgG2a, serum IgG subclass anti-OVA activity at week 6: unit not given here; settings: for IgG1, serum IgG subclass anti-OVA activity at week 6 / IgG2a, serum IgG subclass anti-OVA activity at week 6: OVA 20 μg + adjuvant 100 μg s.c. days 0, 14, 28; for IgG1, serum IgG subclass anti-OVA activity at week 6 / IgG2a, serum IgG subclass anti-OVA activity at week 6 / IgG2a/IgG1, anti-OVA at week 6: mean ± SEM; for IgG2a/IgG1, anti-OVA at week 6: OVA 20 μg + adjuvant 100 μg s.c.; for IgG2a anti-OVA response in words / serum IgG anti-OVA response compared with OVA alone: study of saponins 3-6; for serum IgG anti-OVA response compared with OVA alone: weeks 2, 4, 6
Method: With pure natural saponins 3 and 4, and their derivatives 5 and 6 (FIG. 7) available, their ability to potentiate antibody responses to chicken egg ovalbumin (OVA) was evaluated. The known saponin adjuvant GPI-0100 was used as a positive control. Thus, groups of female BALB/c mice (8-10 weeks of age, six per group) were immunized by the subcutaneous route (s.c.) with OVA (20 μg) alone or with GPI-0100, saponins 3-6 at 100 μg dose on days 0, 14 and 28. Mice were weighed and serum samples were collected prior to each immunization and at 6 weeks after the initial immunization. The levels of serum IgG antibody activity to OVA were determined by enzyme-linked immunosorbent assay (ELISA), as shown in FIGS. 6A-6C, 9A-9C, and Table 1.
Their ability to potentiate antibody responses to chicken egg ovalbumin (OVA) was then evaluated. The known saponin adjuvant GPI-0100 was one of the positive controls. Also used was the recently reported MS derivative VSA-1 (4a) as the other positive control. Its high IgG1/IgG2a production and low toxicity are similar to that of GPI-0100. Thus, groups of female BALB/c mice (8-10 weeks of age, six per group) were immunized by the subcutaneous route (s.c.) with OVA (20 μg) alone or with GPI-0100, or a MS saponin derivative at 100 μg dose on days 0, 14 and 28. Mice were weighed and serum samples were collected prior to each immunization and at 2 weeks following the last immunization. The levels of serum antibody activity to OVA were determined by enzyme-linked immunosorbent assay (ELISA).
BALB/c mice used in this study were from Frederick Cancer Research (Fredrick, MD). To assess the adjuvant activity of the MS saponin-based immune adjuvants, groups of female mice (8-10 weeks of age; 6 mice per group) were immunized by the subcutaneous (s.c.) route with OVA (20 μg) or rHagB (35 μg) alone, or with antigen plus proper adjuvant such as GPI-0100 (100 μg) or a MS adjuvant (100 μg) on days 0, 14 and 28. Prior to each immunization and at two weeks post last immunization, mice were weighed and blood samples were collected from the lateral tail vein by using heparinized capillary pipettes. The serum was obtained after centrifugation and stored at −20° C. until assayed.
The levels of specific serum IgG and IgG subclasses against OVA or rHagB in each group were determined by an enzyme-linked immunosorbent assay (ELISA). Maxisorpmicrotiter plates (NUNC International, Roskilde, DK) were coated with rHagB (1 μg/ml), OVA (0.1 μg/ml), or with optimal amounts of goat anti-mouse IgG, IgG1 or IgG2a in borate buffer saline (BBS; 100 mM NaCl, 50 mM boric acid, 1.2 mM Na2B4O7, pH 8.2) at 4° C. overnight. Plates were blocked with 1% bovine serum albumin (BSA) and 0.02% sodium azide in BBS for 2 h at room temperature. Serial two-fold dilutions of serum samples were added in duplicate to the plates. To generate standard curves, serial dilutions of a mouse immunoglobulin reference serum (MP Biomedicals, Solon, OH) were added to two rows of wells in each plate that had been coated with the appropriate anti-mouse IgG or IgG subclass reagent. After incubation (overnight at 4° C.) and washing of the plates, horseradish peroxidase-conjugated goat anti-mouse IgG or IgG subclass antibody was added to appropriate wells. After 4 h of incubation at room temperature, plates were washed and developed by o-phenylenediamine substrate with hydrogen peroxide. Color development was recorded at 490 nm. The concentrations of antibodies were determined by interpolation on standard curves generated by using the mouse immunoglobulin reference serum and constructed by a computer program based on four-parameter logistic algorithms (Softmax/Molecular Devices Corp., Menlo Park, CA).
Statistical significance in antibody responses was evaluated by t tests (with unpaired, nonparametric and Mann-Whiteny test) using GraphPad Prism 8. Differences were considered significant at a P value<0.05.

serum Ab titers = settings: in vivo; cited from earlier work

Molecule | IgG1, serum IgG subclass anti-OVA activity at week 6 [1] [µg/mL] | IgG2a, serum IgG subclass anti-OVA activity at week 6 [1] | IgG2a/IgG1, anti-OVA at week 6 [1] | IgG2a anti-OVA response in words [1] | serum IgG anti-OVA response compared with OVA alone [1] | boost of serum Ab titers compared to vaccine alone (serum Ab titers)
CC1OC(OC2C(O)C(C(=O)O)OC(OC3CCC4(C)C(CCC5(C)C4CC=C4C6CC(C)(C)CCC6(C(=O)OC6OC(C)C(O)C(O)C6OC6OC(C)C(OC7OCC(O)C(O)C7O)C(OC7OC(CO)C(O)C(OC8OCC(O)C(O)C8O)C7O)C6O)CCC45C)C3(C)C=O)C2OC2OC(CO)C(O)C(O)C2O)C(O)C(O)C1O (centres unmarked) [compound 3, Momordica saponin I] | 233 ± 74 | 0.2 | <0.001** | negligible IgG2a responses | did not show significant difference in IgG responses from the OVA group | –
Momordica saponins II [compound 4] | 262 ± 37 | 0.1 | <0.001** | negligible IgG2a responses | significant difference in IgG responses from the OVA group at weeks 2 (P<0.01) and 4 (P<0.001) but not at week 6 | –
monophosphoryl lipid A [MPL] | – | – | – | – | – | 10-20 fold
